Experiments:
[1] = Metabolic stability in mouse liver microsomes; type: in vitro ADME
Method: (§1) Working solution: 5 μL of compound and control stock solution (10 mM in dimethyl sulfoxide (DMSO)) were diluted with 495 μL of acetonitrile (ACN) (intermediate solution concentration: 100 μM, 99% ACN)
(§2) NADPH Cofactor Preparation: NADPH powder: β-Nicotinamide adenine dinucleotide phosphate reduced form, tetrasodium salt; NADPH·4Na. The appropriate amount of NADPH powder was weighed and diluted into a 10 mM MgCl2 solution (working solution concentration: 10 unit/mL; final concentration in reaction system: 1 unit/mL)
(§3) Liver Microsomes Preparation: The appropriate concentrations of microsome working solutions were prepared in 100 mM potassium phosphate buffer. Cold (4° C.) acetonitrile (ACN) containing 200 ng/mL tolbutamide and 200 ng/mL labetalol as internal standards (1S) was used as the stop solution
(§4) Assay Procedure: Pre-warm empty ‘Incubation’ plates T60 and NCF60 for 10 minutes. Dilute liver microsomes to 0.56 mg/mL in 100 mM phosphate buffer. Transfer 445 μL microsome working solutions (0.56 mg/mL) into pre-warmed ‘Incubation’ plates T60 and NCF60, Then pre-incubate ‘Incubation’ plates T60 and NCF60 for 10 min at 37° C. with constant shaking. Transfer 54 μL liver microsomes to blank plate, then add 6 μL NAPDH cofactor to blank plate, and then add 180 μL quenching solution to blank plate. Add 5 μL compound working solution (100 μM) into ‘incubation’ plates (T60 and NCF60) containing microsomes and mix 3 times thoroughly.
(§5) For the NCF60 plate, add 50 μL of buffer and mix 3 times thoroughly. Start timing; plate will be incubated at 37° C. for 60 min while shaking. In ‘Quenching’ plate T0, add 180 μL quenching solution and 6 μL NAPDH cofactor. Ensure the plate is chilled to prevent evaporation. For the T60 plate, mix 3 times thoroughly, and immediately remove 54 μL mixture for the 0-min time point to ‘Quenching’ plate. Then add 44 μL NAPDH cofactor to incubation plate (T60). Start timing; plate will be incubated at 37° C. for 60 min while shaking. At 5, 10, 20, 30, and 60 min, add 180 μL quenching solution to ‘Quenching’ plates, mix once, and serially transfer 60 μL sample from T60 plate per time point to ‘Quenching’ plates. For NCF60: mix once, and transfer 60 μL sample from the NCF60 incubation to ‘Quenching’ plate containing quenching solution at the 60-min time point. All sampling plates are shaken for 10 min, then centrifuged at 4000 rpm for 20 minutes at 4° C. Transfer 80 μL supernatant into 240 μL HPLC water, and mix by plate shaker for 10 min. Each bioanalysis plate was sealed and shaken for 10 minutes prior to LC-MS/MS analysis.
(§6) The equation of first order kinetics was used to calculate T½ and CLint(mic) (μL/min/mg). Equation of first order kinetics: […]
(§7) The biological stability of the compounds of the disclosure can be measured by determining its ½ life in the presence microsomes. Presented in Table 5, is the ½ life of selected compounds of the disclosure in the presence of human liver microsomes (HLM) or mouse liver microsomes (MLM) as described above. In Table 5, ½ life is presented as “++++” (value is greater than 60 minutes), “+++” (value is greater than 30 minutes and less than or equal to 60 minutes), “++” (value is greater than 15 minutes and less than or equal to 30 minutes) and “+” (value is 15 minutes or less).

[2] = biological target: DNA-PK (Homo sapiens (Human), UniProt P78527); assay: Z'-LYTE / Adapta kinase assay, DNA-PK; type: biochemical; conditions: for inhibition at 0.1 µM: read-out: DNA-PK % Inh. @ 100 nM
Procedure, shortened: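 Z'-LYTE FRET-peptide phosphorylation read as coumarin/fluorescein emission ratio (400 nm excitation); Adapta immunoassay detects ADP formation. 60-min kinase reaction, 60-min development, room temperature.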

[3] = Metabolic stability in human liver microsomes; type: in vitro ADME
Method: as §1, §2, §3, §4, §5, §6, §7

Row | ½ life minutes (MLM) [1] | IC50 [2] [nM] | inhibition at 0.1 µM [2] [%] | ½ life minutes (HLM) [3] | DNA-PK % Inh. @ 100 nM ([2]; 100 nM) | SMILES
1 | ++++ (value is greater than 60 minutes) | < 2 | > 90 | ++++ (value is greater than 60 minutes) |  | C[C@H](Nc1ncnc2ccc(-c3cnc(Cl)c(NS(C)(=O)=O)c3)cc12)c1ccccc1 [Compound 2S, N-(2-chloro-5-(4-((1S-phenylethyl)amino)quinazolin-6-yl)pyridin-3-yl)methanesulfonamide]
2 | ++++ (value is greater than 60 minutes) |  | 80 to 90 | ++++ (value is greater than 60 minutes) |  | C[C@@H](Nc1ncnc2ccc(-c3cnc(Cl)c(NS(C)(=O)=O)c3)cc12)c1ccc(F)cc1 [Compound 111R, N-(2-chloro-5-(4-((1R-(4-fluorophenyl)ethyl)amino)quinazolin-6-yl)pyridin-3-yl)methanesulfonamide]

Further lines, the compound ahead of its results:

Row | SMILES | ½ life minutes (MLM) [1] | IC50 [2] [nM] | inhibition at 0.1 µM [2] [%] | ½ life minutes (HLM) [3] | DNA-PK % Inh. @ 100 nM ([2]; 100 nM)
3 | CS(=O)(=O)Nc1cc(-c2ccc3ncnc(NCc4ccccc4)c3c2)cnc1Cl [Comparative Compound 1, N-[5-[4-(benzylamino)quinazolin-6-yl]-2-chloro-3-pyridyl]methanesulfonamide, reference compound] | ++++ (value is greater than 60 minutes) | < 2 | > 90 | ++++ (value is greater than 60 minutes) | 
4 | CS(=O)(=O)Nc1cc(-c2ccc3ncnc(Nc4ccc(F)c(Cl)c4)c3c2)cnc1Cl [Comparative Compound 2, reference compound] | ++++ (value is greater than 60 minutes) | < 2 | > 90 | ++++ (value is greater than 60 minutes) | 
5 | CS(=O)(=O)Nc1cncc(-c2ccc3ncnc(NCc4ccccc4)c3c2)c1 [Comparative Compound 3, reference compound] | + (value is 15 minutes or less) |  |  | ++++ (value is greater than 60 minutes) | **** (value is greater than 90%)
6 | C[C@@H](Nc1ncnc2ccc(-c3cnc(Cl)c(NS(C)(=O)=O)c3)cc12)c1ccccc1 [Compound 2R, N-(2-chloro-5-(4-((1R-phenylethyl)amino)quinazolin-6-yl)pyridin-3-yl)methanesulfonamide] | ++++ (value is greater than 60 minutes) | 2 to 20 | > 90 | ++++ (value is greater than 60 minutes) | 
7 | CC(Nc1c(C#N)cnc2ccc(-c3cnc(N)nc3)cc12)c1ccccc1 (stereo not shown) [Compound 53, 6-(2-aminopyrimidin-5-yl)-4-(1-phenylethylamino) quinoline-3-carbonitrile] | +++ (value is greater than 30 minutes and less than or equal to 60 minutes) | 20 to 200 | 10 to 80 | ++++ (value is greater than 60 minutes) | 
8 | C[C@@H](Nc1c(C#N)cnc2ccc(-c3cnc(N)nc3)cc12)c1ccccc1 [Compound 53R, (R)-6-(2-aminopyrimidin-5-yl)-4-((1-phenylethyl)amino)quinoline-3-carbonitrile] | +++ (value is greater than 30 minutes and less than or equal to 60 minutes) | 20 to 200 | 10 to 80 | +++ (value is greater than 30 minutes and less than or equal to 60 minutes) | 
9 | CC(Nc1c(C#N)cnc2ccc(-c3cnc4[nH]ncc4c3)cc12)c1ccccc1 (stereo not shown) [Compound 54, 4-(1-phenylethylamino)-6-(1H-pyrazolo[3,4-b]pyridin-5-yl)quinoline-3-carbonitrile] | + (value is 15 minutes or less) | 2 to 20 | 80 to 90 | +++ (value is greater than 30 minutes and less than or equal to 60 minutes) | 

Source: patent US11673876B2, “Substituted aminobenzyl heteroaryl compounds as EGFR and/or PI3K inhibitors” (Mekanistic Therapeutics LLC, priority 2020, dated 2023)
